Test results reported in patent US20040259104A1, “Test” (priority 2002, published 2004).
Several values for one entry are separate records, joined by “and”; a condition that tells them apart may be missing. Equal values may be shown once.

Columns and labels:
Assay type in all cases: in vivo, human
[1] = DEX concentration by radioimmunoassay after DST; settings: mean
Procedure: (§1) The two dexamethasone suppression tests (DST) were performed as described previously (Huizenga et al, J.Clin.Endocrinol Metab.1998; 83(1): 47-54). In brief, venous blood was obtained in the morning between 8 and 9 am after an overnight fast for serum cortisol and insulin measurements. Participants were instructed to ingest a tablet of 1 mg (and 0.25 mg, respectively) DEX at 11.00 pm. The next morning fasting blood was drawn by venapuncture at the same time as the previous morning. To check for compliance and possible abnormalities in the metabolism of DEX, the DEX concentration was also measured in a radioimmunoassay using antiserum obtained from IgG Corporation (Nashville, Tenn.). Intra- and interassay variations were below 8.5% and 14.2% respectively.

[2] = Fasting serum insulin after DEX administration (DST); settings: for Post DEX insulin / Δ insulin: mean
Procedure: as §1
(§2) Serum cortisol concentrations were determined using RIA-kits obtained from Diagnostics Products Corporation (Los Angeles, Calif.). Intra- and interassay variations were below 8.0% and 9.5% respectively. Circulating insulin and cortisol binding globulin concentrations were determined using commercially available ratioimmunoassays (Medgenix Diagnostics, Brussels, Belgium). Intra- and interassay variations were 8.0% and 13.7% respectively. Estradiol, androstenedione and DHEAS concentrations were determined using RIA-kits obtained from Diagnostics Products Corporation. Intra- and interassay variations; estradiol: 7.0% and 8.1% androstenedione: 8.3% and 9.2%, DHEAS: 5.3% and 7.0% SHBG was assayed with an commercially available immunoradiometric assay (Diagnostics Products Corporation; intra- and interassay variations were 3.6% and 6.9% respectively). Testosterone was measured with a non-commercial radioimmunoassay (intra- and interassay variations 3.6% and 6.9%). Commercially available immunoradiometric assays were used for the measurement of IGF-BP1 (Diagnostic System Laboratories Inc.; intra- and interassay variations 4.0% and 6.0%).

[3] = system: feedback sensitivity of the HPA-axis; test: Dexamethasone suppression test (DST): serum cortisol after DEX; settings: mean
Excerpt: A total of 202 human subjects participated in the study. Their age varied between 53 and 82 years ([…] with mean ages of 67.7±0.6 and 65.9±0.6 years, respectively). They were living in a suburb of Rotterdam, The Netherlands. These subjects were participants in the Rotterdam Study, a population-based cohort study (7983 subjects) of the determinants of chronic disabling diseases in the elderly and were selected at random. Subjects with acute, psychiatric or endocrine diseases, including diabetes mellitus treated with medication were not invited. Compared to all participants of the Rotterdam study, there were no differences in age and gender distribution and cardiovascular risk factors. The subjects gave their written consent to participate in the study, which received the approval of the Medical Ethics Committee of the Erasmus University Medical School. In order to get more information about the individual variability of the feedback sensitivity of the HPA-axis all 202 subjects were invited for a second DST with a lower dose DEX (0.25 mg) two and a half years later. 149 subjects agreed to participate in this second test (72 men and 77 women).
as §1, §2

[4] = Fasting glucose after DEX administration (DST); settings: 0.25 mg DEX
Procedure: as §1
Glucose, total cholesterol, HDL-chlesterol and triglycerides were measured using standard laboratory methods. Low density lipoprotein (LDL)-cholesterol was calculated using the following formula: LDL-cholesterol=total cholesterol−((triglycerides/5)+HDL-cholesterol).

[5] = 0.25 mg DEX, ER22/23EK-carriers (n = 13), second examination
[6] = 0.25 mg DEX, non-carriers (n = 136), second examination

DEX concentration ([1]; morning after 0.25 mg DEX, ER22/23EK-carriers (n = 13)): 2.88 nmol/L
DEX concentration ([1]; morning after 0.25 mg DEX, non-carriers (n = 136)): 2.85 nmol/L
DEX concentration ([1]; morning after 1 mg DEX, ER22/23EK-carriers (n = 18)): 6.63 nmol/L
DEX concentration ([1]; morning after 1 mg DEX, non-carriers (n = 184)): 7.32 nmol/L
SMILES: C[C@@H]1C[C@H]2[C@@H]3CCC4=CC(=O)C=C[C@]4(C)[C@@]3(F)[C@@H](O)C[C@]2(C)[C@@]1(O)C(=O)CO [DEX, dexamethasone]
Post DEX insulin ([2]; 0.25 mg DEX, ER22/23EK-carriers (n = 10), second examination): 10.0 mU/l
Post DEX insulin ([2]; 0.25 mg DEX, non-carriers (n = 105), second examination): 14.2 mU/l
insulin level after DEX administration ([2]; 0.25 mg DEX, total group of 115 subjects, 14.7 before, p=0.02): 13.9±0.50 mU/L
Post DEX insulin ([2]; 1 mg DEX, ER22/23EK-carriers (n = 15), first examination): 14.4 mU/l
insulin concentration after DEX administration ([2]; 1 mg DEX, all 182 subjects together, 11.5±5.15 before, p<0.001): 17.2±8.41 mU/L
Post DEX insulin ([2]; 1 mg DEX, non-carriers (n = 167), first examination): 17.4 mU/l
Δ insulin ([2]; change in response to 0.25 mg DEX, ER22/23EK-carriers (n = 10)): 0.01 mU/l
Δ insulin ([2]; change in response to 0.25 mg DEX, non-carriers (n = 105)): −0.92 mU/l
Δ insulin ([2]; change in response to 1 mg DEX, ER22/23EK-carriers (n = 15)): 5.5±1.3 mU/l and 5.5 mU/l
Δ insulin ([2]; change in response to 1 mg DEX, non-carriers (n = 167)): 5.7±0.6 mU/l and 5.7 mU/l
PostDEX cortisol [3, 5]: 267.5 nmol/L
Δ cortisol [3, 5]: 259.7 nmol/L
PostDEX cortisol [3, 6]: 259.5 nmol/L
Δ cortisol [3, 6]: 285.8 nmol/L
PostDEX cortisol ([3]; 1 mg DEX oral at 11.00 pm, next morning fasting, ER22/23EK-carriers (n = 18), first examination): 57.9 nmol/L
PostDEX cortisol ([3]; 1 mg DEX oral at 11.00 pm, next morning fasting, non-carriers (n = 184), first examination): 33.3 nmol/L
Δ cortisol ([3]; cortisol suppression in reaction to 1 mg DEX, ER22/23EK-carriers (n = 18)): 504.9 nmol/L
Δ cortisol ([3]; cortisol suppression in reaction to 1 mg DEX, non-carriers (n = 184)): 481.4 nmol/L
glucose concentration after the 0.25 mg DST ([4]; ER22/23EK-carriers): 5.3 ± 0.17 mmol/L
glucose concentration after DST ([4]; all subjects, 5.6±0.06 before, p=0.004): 5.5 ± 0.05 mmol/L
glucose concentration after the 0.25 mg DST ([4]; non-carriers): 5.5 ± 0.05 mmol/L
